# Experiments:
# Test in all cases: biochemical
# Type in all cases: biochemical
# [1] = target: T1, 382 unique human kinases (Homo sapiens, UniProt P53350); details: PLK1, [ATP] 30 µM
# T1 construct: purchased Reaction Biology (HotSpot contract assay)
# [2] = target: T2, 382 unique human kinases (Homo sapiens, UniProt O75914); details: PAK3, 10 uM; for remaining activity at 10 µM: read-out: % Enzyme Activity (relative to DMSO controls)
# T2 construct: purchased Reaction Biology (HotSpot contract assay)
# [3] = target: T3, 382 unique human kinases (Homo sapiens, UniProt P51956); details: NEK3, 10 uM; for remaining activity at 10 µM: read-out: % Enzyme Activity (relative to DMSO controls)
# T3 construct: purchased Reaction Biology (HotSpot contract assay)
# T3 sequence (P51956 1-506): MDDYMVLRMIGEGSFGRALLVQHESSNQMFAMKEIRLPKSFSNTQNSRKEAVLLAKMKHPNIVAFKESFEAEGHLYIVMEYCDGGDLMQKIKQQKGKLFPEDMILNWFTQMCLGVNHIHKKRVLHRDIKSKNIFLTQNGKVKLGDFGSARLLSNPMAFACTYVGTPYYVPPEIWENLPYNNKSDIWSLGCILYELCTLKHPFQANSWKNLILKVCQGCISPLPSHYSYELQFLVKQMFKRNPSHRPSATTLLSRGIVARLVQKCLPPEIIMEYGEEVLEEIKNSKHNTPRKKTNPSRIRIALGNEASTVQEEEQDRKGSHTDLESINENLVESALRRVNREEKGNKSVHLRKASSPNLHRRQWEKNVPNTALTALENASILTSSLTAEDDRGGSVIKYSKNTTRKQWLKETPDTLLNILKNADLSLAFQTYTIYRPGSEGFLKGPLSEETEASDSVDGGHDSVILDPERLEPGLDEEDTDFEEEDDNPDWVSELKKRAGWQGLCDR
# [4] = target: T4, 382 unique human kinases (Homo sapiens, UniProt P36888, D835Y); details: FLT3 (D835Y), [ATP] 20 µM, compound 10 uM; for remaining activity at 10 µM: read-out: % Enzyme Activity (relative to DMSO controls)
# T4 construct: purchased Reaction Biology (HotSpot contract assay)
# T4 sequence (P36888 27-993 D835Y): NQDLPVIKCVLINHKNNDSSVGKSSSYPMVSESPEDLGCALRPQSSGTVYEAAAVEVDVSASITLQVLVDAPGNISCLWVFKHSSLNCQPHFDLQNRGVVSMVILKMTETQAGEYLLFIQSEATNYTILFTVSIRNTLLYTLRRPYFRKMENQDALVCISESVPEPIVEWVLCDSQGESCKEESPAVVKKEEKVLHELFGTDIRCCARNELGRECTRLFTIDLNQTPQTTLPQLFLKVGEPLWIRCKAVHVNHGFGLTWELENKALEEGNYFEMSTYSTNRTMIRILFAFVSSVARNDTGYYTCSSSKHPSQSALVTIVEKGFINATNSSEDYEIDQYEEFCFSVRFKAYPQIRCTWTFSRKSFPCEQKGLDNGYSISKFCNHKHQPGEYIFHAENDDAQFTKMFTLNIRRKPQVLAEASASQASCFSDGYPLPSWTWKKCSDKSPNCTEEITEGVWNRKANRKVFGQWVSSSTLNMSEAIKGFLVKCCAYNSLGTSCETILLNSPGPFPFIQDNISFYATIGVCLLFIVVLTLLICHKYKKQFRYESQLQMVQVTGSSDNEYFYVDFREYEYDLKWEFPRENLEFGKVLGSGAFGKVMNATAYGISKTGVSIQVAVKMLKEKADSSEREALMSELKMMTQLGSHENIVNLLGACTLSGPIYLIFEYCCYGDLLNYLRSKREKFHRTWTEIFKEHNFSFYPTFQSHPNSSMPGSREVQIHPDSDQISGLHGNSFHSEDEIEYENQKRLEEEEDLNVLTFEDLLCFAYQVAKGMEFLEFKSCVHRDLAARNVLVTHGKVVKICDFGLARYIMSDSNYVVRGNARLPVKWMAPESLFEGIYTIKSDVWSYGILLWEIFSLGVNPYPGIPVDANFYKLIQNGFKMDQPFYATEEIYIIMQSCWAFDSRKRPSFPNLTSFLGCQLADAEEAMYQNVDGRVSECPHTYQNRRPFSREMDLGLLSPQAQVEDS
# [5] = target: T5, 382 unique human kinases (Homo sapiens, UniProt P52564); details: MKK6, 10 uM; for remaining activity at 10 µM: read-out: % Enzyme Activity (relative to DMSO controls)
# T5 construct: purchased Reaction Biology (HotSpot contract assay)
# T5 sequence (P52564 1-334): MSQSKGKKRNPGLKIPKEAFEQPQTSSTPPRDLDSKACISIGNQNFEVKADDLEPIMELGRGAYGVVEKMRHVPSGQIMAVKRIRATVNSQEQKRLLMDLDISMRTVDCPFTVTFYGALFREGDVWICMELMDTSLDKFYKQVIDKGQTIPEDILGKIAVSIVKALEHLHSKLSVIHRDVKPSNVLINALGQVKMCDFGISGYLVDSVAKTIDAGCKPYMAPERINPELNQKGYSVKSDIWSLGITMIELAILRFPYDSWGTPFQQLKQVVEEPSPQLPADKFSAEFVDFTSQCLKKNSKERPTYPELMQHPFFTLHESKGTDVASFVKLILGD
# [6] = target: T6, 382 unique human kinases (Homo sapiens, UniProt Q6P2M8); details: kinase CAMK1b, compound 10 uM; for remaining activity at 10 µM: read-out: % Enzyme Activity (relative to DMSO controls)
# T6 construct: purchased Reaction Biology (HotSpot contract assay)
# [7] = target: T7, 382 unique human kinases (Homo sapiens, UniProt P16591); details: kinase FER, compound 10 uM; for remaining activity at 10 µM: read-out: % Enzyme Activity (relative to DMSO controls)
# T7 construct: purchased Reaction Biology (HotSpot contract assay)
# [8] = target: T8, 382 unique human kinases (Homo sapiens, UniProt P20794); details: kinase MAK, compound 10 uM; for remaining activity at 10 µM: read-out: % Enzyme Activity (relative to DMSO controls)
# T8 construct: purchased Reaction Biology (HotSpot contract assay)
# T8 sequence (P20794 1-623): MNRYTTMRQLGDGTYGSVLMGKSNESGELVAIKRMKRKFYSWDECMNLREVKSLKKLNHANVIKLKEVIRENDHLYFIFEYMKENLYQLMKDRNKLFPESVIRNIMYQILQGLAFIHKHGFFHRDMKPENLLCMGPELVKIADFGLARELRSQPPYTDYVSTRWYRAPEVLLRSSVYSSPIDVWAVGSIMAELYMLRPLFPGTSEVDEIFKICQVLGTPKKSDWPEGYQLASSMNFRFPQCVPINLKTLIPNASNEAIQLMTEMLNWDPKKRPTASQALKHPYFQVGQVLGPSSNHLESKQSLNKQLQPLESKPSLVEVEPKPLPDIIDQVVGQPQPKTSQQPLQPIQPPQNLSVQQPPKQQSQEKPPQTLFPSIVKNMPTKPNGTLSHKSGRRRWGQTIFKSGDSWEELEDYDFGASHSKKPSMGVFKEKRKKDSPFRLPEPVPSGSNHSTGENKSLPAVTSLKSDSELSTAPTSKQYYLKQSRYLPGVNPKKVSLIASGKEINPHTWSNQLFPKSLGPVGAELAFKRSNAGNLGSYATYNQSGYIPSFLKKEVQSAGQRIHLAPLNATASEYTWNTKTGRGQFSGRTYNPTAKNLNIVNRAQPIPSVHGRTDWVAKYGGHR
# [9] = compound 10 uM, read-out: % Enzyme Activity (relative to DMSO controls)
# T6 sequence (Q6P2M8 whole entry): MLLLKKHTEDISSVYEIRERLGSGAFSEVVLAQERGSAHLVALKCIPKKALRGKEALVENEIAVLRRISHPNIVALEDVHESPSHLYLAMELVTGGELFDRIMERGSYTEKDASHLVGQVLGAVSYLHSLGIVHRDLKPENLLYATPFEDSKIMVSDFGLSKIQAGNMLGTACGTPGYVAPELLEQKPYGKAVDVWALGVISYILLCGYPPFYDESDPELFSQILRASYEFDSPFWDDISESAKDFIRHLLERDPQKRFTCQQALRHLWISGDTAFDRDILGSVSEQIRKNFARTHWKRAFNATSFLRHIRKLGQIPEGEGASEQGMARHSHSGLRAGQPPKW
# T1 sequence (P53350 whole entry): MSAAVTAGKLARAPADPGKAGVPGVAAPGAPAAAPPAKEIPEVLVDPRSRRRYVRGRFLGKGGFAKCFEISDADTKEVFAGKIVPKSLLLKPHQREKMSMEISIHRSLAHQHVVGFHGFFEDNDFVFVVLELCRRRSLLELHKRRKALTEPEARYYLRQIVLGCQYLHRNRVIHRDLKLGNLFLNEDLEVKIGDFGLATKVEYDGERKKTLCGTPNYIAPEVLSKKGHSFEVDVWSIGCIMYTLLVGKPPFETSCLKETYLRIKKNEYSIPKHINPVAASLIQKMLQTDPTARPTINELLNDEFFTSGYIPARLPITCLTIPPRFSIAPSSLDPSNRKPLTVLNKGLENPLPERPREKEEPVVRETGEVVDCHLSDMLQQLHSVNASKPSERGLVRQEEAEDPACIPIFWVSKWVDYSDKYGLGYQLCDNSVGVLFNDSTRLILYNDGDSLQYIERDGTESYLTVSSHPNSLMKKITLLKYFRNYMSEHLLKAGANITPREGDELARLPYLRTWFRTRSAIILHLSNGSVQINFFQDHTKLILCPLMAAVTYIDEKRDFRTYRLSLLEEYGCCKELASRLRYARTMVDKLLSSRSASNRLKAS
# T2 sequence (O75914 whole entry): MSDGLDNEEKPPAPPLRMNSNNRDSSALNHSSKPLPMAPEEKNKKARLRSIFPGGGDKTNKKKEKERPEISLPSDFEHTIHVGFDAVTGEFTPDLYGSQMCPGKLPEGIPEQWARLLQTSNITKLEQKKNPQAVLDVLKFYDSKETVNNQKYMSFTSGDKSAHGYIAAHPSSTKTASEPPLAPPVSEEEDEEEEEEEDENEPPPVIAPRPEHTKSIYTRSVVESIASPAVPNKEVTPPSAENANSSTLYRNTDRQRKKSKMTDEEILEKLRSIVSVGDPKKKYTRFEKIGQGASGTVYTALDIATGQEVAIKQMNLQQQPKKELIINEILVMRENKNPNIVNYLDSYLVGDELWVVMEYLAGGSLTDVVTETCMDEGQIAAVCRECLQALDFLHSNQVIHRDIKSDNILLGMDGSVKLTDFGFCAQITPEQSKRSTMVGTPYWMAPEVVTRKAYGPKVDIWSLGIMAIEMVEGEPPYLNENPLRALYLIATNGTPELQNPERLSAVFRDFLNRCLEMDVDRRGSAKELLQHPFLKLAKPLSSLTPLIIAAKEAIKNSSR
# T7 sequence (P16591 whole entry): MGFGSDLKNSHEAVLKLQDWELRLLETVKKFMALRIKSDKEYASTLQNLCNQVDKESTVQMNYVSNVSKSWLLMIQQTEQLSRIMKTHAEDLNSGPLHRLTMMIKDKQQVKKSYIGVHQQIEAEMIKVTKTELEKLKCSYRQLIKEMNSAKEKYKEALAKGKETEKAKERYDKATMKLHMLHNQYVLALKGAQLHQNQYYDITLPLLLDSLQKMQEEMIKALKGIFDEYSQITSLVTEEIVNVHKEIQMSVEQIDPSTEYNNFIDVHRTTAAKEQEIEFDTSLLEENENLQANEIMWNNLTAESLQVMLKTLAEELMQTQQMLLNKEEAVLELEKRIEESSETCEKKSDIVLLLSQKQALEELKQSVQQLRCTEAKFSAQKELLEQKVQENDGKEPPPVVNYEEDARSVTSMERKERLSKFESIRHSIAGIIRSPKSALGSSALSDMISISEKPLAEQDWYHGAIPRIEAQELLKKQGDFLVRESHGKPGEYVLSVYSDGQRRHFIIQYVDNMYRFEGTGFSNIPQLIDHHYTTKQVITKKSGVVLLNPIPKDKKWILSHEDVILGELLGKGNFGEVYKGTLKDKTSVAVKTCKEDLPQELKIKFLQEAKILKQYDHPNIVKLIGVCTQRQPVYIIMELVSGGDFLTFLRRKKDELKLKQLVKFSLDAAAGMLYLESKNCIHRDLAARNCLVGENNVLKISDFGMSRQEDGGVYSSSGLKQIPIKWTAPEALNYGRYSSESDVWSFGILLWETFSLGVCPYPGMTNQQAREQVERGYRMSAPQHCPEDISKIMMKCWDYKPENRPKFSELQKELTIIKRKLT
SMILES,% Enzyme Activity (relative to DMSO controls) ([1]; compound 10 uM) [%],"remaining activity at 10 µM [1, 9] [%]",% Enzyme Activity (relative to DMSO controls) [2] [%],remaining activity at 10 µM [2] [%],% Enzyme Activity (relative to DMSO controls) [3] [%],remaining activity at 10 µM [3] [%],% Enzyme Activity (relative to DMSO controls) [4] [%],remaining activity at 10 µM [4] [%],remaining activity at 10 µM [5] [%],remaining activity at 10 µM [6] [%],remaining activity at 10 µM [7] [%],remaining activity at 10 µM [8] [%],% Enzyme Activity (relative to DMSO controls) [5] [%],% Enzyme Activity (relative to DMSO controls) [6] [%],% Enzyme Activity (relative to DMSO controls) [7] [%],% Enzyme Activity (relative to DMSO controls) [8] [%],"remaining activity at 1 µM ([1]; compound 1 uM, read-out: % Enzyme Activity (relative to DMSO controls)) [%]"
CCNC(=O)c1noc(-c2cc(C(C)C)c(O)cc2O)c1-c1ccc(CN2CCOCC2)cc1 [Luminespib],100.90,103,107.82,108,90.60,91.5,78.51,78.6,–,–,–,–,–,–,–,–,–
CC(C)c1cc(-c2n[nH]c(=O)n2-c2ccc3c(ccn3C)c2)c(O)cc1O [Ganetespib (STA9090)],–,–,–,–,–,–,–,–,72.9,83.4,82.6,86.4,–,–,–,–,–
CCNC(=O)c1noc(-c2cc(C(C)C)c(O)cc2O)c1-c1ccc(CN2CCOCC2)cc1 [Luminespib (AUY-922)],–,–,–,–,–,–,–,–,100,94.9,102,94.7,98.81,91.57,101.55,94.57,–
CC(C)c1cc(-c2n[nH]c(=O)n2-c2ccc3c(ccn3C)c2)c(O)cc1O [Ganetespib],–,11.5,–,98.1,–,117,–,18.6,–,–,–,–,–,–,–,–,88.2
